Laboratory results taken from patent US12528802B2, “Heterocyclic compound” (Takeda Pharmaceutical Company Limited, priority 2019, dated 2026).

The molecules below were run against T1, glucosylceramide synthase (Homo sapiens, UniProt Q16739) (assay: Glucosylceramide synthase (GCS) enzyme assay, microsome fraction, C8 glucosylceramide quantified by Rapidfire MS/MS). Conditions: test compound 10 μM; 1.7 μM UDP-glucose, 3 μM C8 ceramide; room temperature 60 min.
T1 construct: made in house; host or cells: Expi293F cells (transient expression, pcDNA3.3-TOPO vector); microsome fraction used as enzyme source
T1 sequence (Q16739 1-394): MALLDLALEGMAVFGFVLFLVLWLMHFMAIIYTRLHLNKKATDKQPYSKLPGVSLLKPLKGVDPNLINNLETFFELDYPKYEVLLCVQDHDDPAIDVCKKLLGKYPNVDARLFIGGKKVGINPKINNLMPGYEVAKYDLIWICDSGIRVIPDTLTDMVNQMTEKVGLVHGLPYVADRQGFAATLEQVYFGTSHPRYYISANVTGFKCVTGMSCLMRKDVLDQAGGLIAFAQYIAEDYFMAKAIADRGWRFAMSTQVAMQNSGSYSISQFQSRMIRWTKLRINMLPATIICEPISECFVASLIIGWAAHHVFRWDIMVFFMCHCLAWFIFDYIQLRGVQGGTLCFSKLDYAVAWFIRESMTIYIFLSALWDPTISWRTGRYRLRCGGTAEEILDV
Assay type: biochemical
Protocol: Glucosylceramide Synthase (GCS) Assay
In enzyme assay, a microsome fraction obtained by transient expression by Expi293F™ cells (catalog number: A14527, Thermo Fisher Scientific) was used as a glucosylceramide synthase source. Liposomal C8 ceramide and UDP-glucose were used as substrates. […] After the enzymatic reaction, the analysis was performed with Rapidfire MS/MS (API-4000™, SCIEX), and C8 glucosylceramide was quantified to evaluate the inhibitory activity of the test compound against glucosylceramide synthase activity.
PcDNA3.3TOPO vector (catalog number: K830001, Thermo Fisher Scientific) into which the human GCS gene was inserted was introduced into Expi293F™ Cells (catalog number: A14527, Thermo Fisher Scientific) by using ExpiFectamine™ 293 Transfection Kit (catalog number: A14525, Thermo Fisher Scientific). The cultured cells were dissolved in D-PBS (catalog number: 048-29805, Fuji Film Wako Pure Chemical Industries, Ltd.) containing 1 mM PMSF, and the solution was allowed to stand on ice for 30 minutes, and then subjected to cell disruption (homogenized). The disruption solution was centrifuged at 10,000×g for 20 minutes at 4° C., and the obtained supernatant was centrifuged at 142,400×g for 60 minutes at 4° C. The obtained precipitate was resuspended in a D-PBS solution containing 1 mM PMSF, and homogenized again to prepare as a microsome fraction. Protein quantification was performed by the CBB method.
A 1 mM compound solution prepared by dissolving the test compound in DMSO was added to a 384-well plate by 100 nL so that the final concentration of the test compound was 10 μM. Next, a substrate solution consisting of 3.4 μM UDP-glucose and 6 μM C8 ceramide was added by 5 μL, followed by an enzyme solution consisting of a 25 μg/mL microsome fraction by 5 μL. C8 ceramide was prepared from liposomes composed of 15 mol % C8 ceramide and 85 mol % dioleoyl phosphatidylcholine (1,2-dioleoyl-sn-glycero-3-phosphocholine: DOPC). The enzymatic reaction was carried out in a solution consisting of 20 mM tris-hydrochloric acid buffer (pH 7.5), 0.01% Tween 20, 0.01% bovine serum albumin and 1 mM dithiothreitol at room temperature for 60 min. Then, a solution consisting of 75% isopropanol and 1% formic acid containing 0.25 μM N-Octadecanoyl-D35-psichosine (catalog number: 1914, Matreya) as an internal standard substance was added by 60 μL to stop the enzymatic reaction. 5 μL of the centrifugal supernatant of the obtained reaction product was analyzed by Rapidfire MS/MS (Agilent Technologies) using API-4000™ (SCIEX), and the C8 glucosylceramide was quantified to evaluate the inhibitory activity of the test compound against the glucosylceramide synthase activity. The inhibitory activity of the test compound was evaluated when the C8 glucosylceramide level in the enzyme-free solution was considered as 100% inhibitory and the enzyme activity of the DMSO group in the absence of the compound was considered as 0% inhibitory.

GCS enzyme inhibitory rate at 10 μM (%) (% of control)	SMILES
96%	O=C1c2ccnc(-c3ccc(F)cc3OCC(F)(F)F)c2CN1c1ccc(C(O)C(F)(F)F)cc1 (single isomer, unassigned) [Example 286, (R or S)-4-[4-fluoro-2-(2,2,2-trifluoroethoxy)phenyl]-2-[4-(2,2,2-trifluoro-1-hydroxyethyl)phenyl]-2,3-dihydro-1H-pyrrolo [3,4-c]pyridin-1-one]

Same assay, conditions: test compound 10 μM; 1.7 μM UDP-glucose, 3 μM C8 ceramide; room temperature 60 min; read-out: GCS enzyme inhibitory rate at 10 μM (%) (% of control)

SMILES	inhibition at 10 µM
CC(C)n1cc2c(c(-c3ccccc3OCC(F)(F)F)c1=O)CN(c1ccc(OCC(C)(C)O)cc1)C2=O [Example 377, 2-[4-(2-hydroxy-2-methylpropoxy)phenyl]-5-(propan-2-yl)-7-[2-(2,2,2-trifluoroethoxy)phenyl]-1H-pyrrolo[3,4-c]pyridine-3,6(2H,5H)-dione]	100%
N#Cc1ccc(N2Cc3cnn(-c4ccccc4OCC(F)(F)F)c3C2)nc1 [Example 216, 6-{1-[2-(2,2,2-trifluoroethoxy)phenyl]-4,6-dihydropyrrolo[3,4-c]pyrazol-5(1H)-yl}pyridine-3-carbonitrile]	98%
O=C1c2ccnc(-c3ccc(F)cc3OCC(F)F)c2CN1c1ccc(C2(O)CCC2)cc1 [Example 267, 4-[2-(2,2-difluoroethoxy)-4-fluorophenyl]-2-[4-(1-hydroxycyclobutyl)phenyl]-2,3-dihydro-1H-pyrrolo[3,4-c]pyridin-1-one]	99%
O=C(c1ccc(N2Cc3c(ccnc3-c3ccc(F)cc3OCC(F)(F)F)C2=O)cc1)N1CCCC1 [Example 180, 4-[4-fluoro-2-(2,2,2-trifluoroethoxy)phenyl]-2-[4-(pyrrolidine-1-carbonyl)phenyl]-2,3-dihydro-1H-pyrrolo[3,4-c]pyridin-1-one]	92%
CC(C)(O)c1ccc(N2Cc3c(cc(C(C)(C)F)nc3-c3ccccc3OCC(F)(F)F)C2=O)cc1 [Example 384, 6-(2-fluoropropan-2-yl)-2-[4-(2-hydroxypropan-2-yl)phenyl]-4-[2-(2,2,2-trifluoroethoxy)phenyl]-2,3-dihydro-1H-pyrrolo[3,4-c]pyridin-1-one]	100%
Cc1cc2c(c(-c3ccccc3OCC(F)(F)F)n1)CN(c1ccc(OCC3(OC4CCCCO4)CC3)cc1)C2=O (racemic) [Example 374, rac-6-methyl-2-[4-({1-[(oxan-2-yl)oxy]cyclopropyl}methoxy)phenyl]-4-[2-(2,2,2-trifluoroethoxy)phenyl]-2,3-dihydro-1H-pyrrolo[3,4-c]pyridin-1-one]	100%
COc1ccccc1-n1ncc2c1CN(c1ccc(F)cc1)C2 [Example 183, 5-(4-fluorophenyl)-1-(2-methoxyphenyl)-1,4,5,6-tetrahydropyrrolo[3,4-c]pyrazole]	83%
O=C1c2ccnc(-c3ccccc3OC(F)F)c2CN1c1ccc(F)cn1 [Example 63, 4-[2-(difluoromethoxy)phenyl]-2-(5-fluoropyridin-2-yl)-2,3-dihydro-1H-pyrrolo[3,4-c]pyridin-1-one]	96%
O=C1C2=C(CN1c1ccc(F)cc1)C(c1ccc(F)cc1OCC(F)(F)F)=NCCN2 [Example 145, 7-(4-fluorophenyl)-5-[4-fluoro-2-(2,2,2-trifluoroethoxy)phenyl]-2,3,6,7-tetrahydropyrrolo[3,4-e][1,4]diazepin-8(1H)-one]	63%
COc1ccccc1-c1nccc2c1CN(c1ccc(OC(F)(F)F)nc1)C2=O [Example 26, 4-(2-methoxyphenyl)-2-[6-(trifluoromethoxy)pyridin-3-yl]-2,3-dihydro-1H-pyrrolo[3,4-c]pyridin-1-one]	92%
CC(C)(O)COc1ccc(N2Cc3c(ccnc3-c3ccccc3OCC(F)F)C2=O)nc1 [Example 306, 4-[2-(2,2-difluoroethoxy)phenyl]-2-[5-(2-hydroxy-2-methylpropoxy)pyridin-2-yl]-2,3-dihydro-1H-pyrrolo [3,4-c]pyridin-1-one]	99%
COc1ccccc1-c1nccc2c1CN(c1ccc(F)cc1)C2 [Example 172, 2-(4-fluorophenyl)-4-(2-methoxyphenyl)-2,3-dihydro-1H-pyrrolo[3,4-c]pyridine]	91%

The remaining lines, values ahead:

inhibition at 10 µM	SMILES
100%	O=C1c2ccnc(-c3ccccc3OCC(F)(F)F)c2CN1c1ccc(C(O)(C(F)F)C(F)F)cc1 [Example 246, 2-[4-(1,1,3,3-tetrafluoro-2-hydroxypropan-2-yl)phenyl]-4-[2-(2,2,2-trifluoroethoxy)phenyl]-2,3-dihydro-1H-pyrrolo[3,4-c]pyridin-1-one]
100%	Cc1cncc(OCC(F)(F)F)c1-c1nccc2c1CN(c1ccc(OC(F)F)cc1)C2=O [Example 175, 2-[4-(difluoromethoxy)phenyl]-4-[3-methyl-5-(2,2,2-trifluoroethoxy)pyridin-4-yl]-2,3-dihydro-1H-pyrrolo[3,4-c]pyridin-1-one ditrifluoroacetate]
100%	O=C1c2ccnc(-c3ccccc3OCC(F)(F)F)c2CN1c1ccc(OC(F)(F)F)cn1 [Example 56, 4-[2-(2,2,2-trifluoroethoxy)phenyl]-2-[5-(trifluoromethoxy)pyridin-2-yl]-2,3-dihydro-1H-pyrrolo[3,4-c]pyridin-1-one]
100%	CC(C)(O)COc1ccc(N2Cc3c(cn(C(F)F)c(=O)c3-c3ccccc3OCC(F)(F)F)C2=O)cc1 [Example 369, 5-(difluoromethyl)-2-[4-(2-hydroxy-2-methylpropoxy)phenyl]-7-[2-(2,2,2-trifluoroethoxy)phenyl]-1H-pyrrolo[3,4-c]pyridine-3,6(2H,5H)-dione]
100%	Cc1cc2c(c(-c3ccccc3OCC(F)(F)F)n1)CN(c1ccc(OCC3(O)CC3)cc1)C2=O [Example 375, 2-{4-[(1-hydroxycyclopropyl)methoxy]phenyl}-6-methyl-4-[2-(2,2,2-trifluoroethoxy)phenyl]-2,3-dihydro-1H-pyrrolo[3,4-c]pyridin-1-one]
90%	CN(C)C(=O)c1ccc(N2Cc3c(ccnc3-c3ccc(F)cc3OCC(F)(F)F)C2=O)cc1 [Example 102, 4-{4-[4-fluoro-2-(2,2,2-trifluoroethoxy)phenyl]-1-oxo-1,3-dihydro-2H-pyrrolo[3,4-c]pyridin-2-yl}-N,N-dimethylbenzamide]
82%	CC(c1ccc(N2Cc3c(ccnc3-c3ccc(F)cc3OCC(F)(F)F)C2=O)cc1)N1CCCC1=O (racemic) [Example 232, rac-4-[4-fluoro-2-(2,2,2-trifluoroethoxy)phenyl]-2-{4-[1-(2-oxopyrrolidin-1-yl)ethyl]phenyl}-2,3-dihydro-1H-pyrrolo[3,4-c]pyridin-1-one]
100%	CC(C)(O)c1cc2c(c(-c3ccccc3OCC(F)(F)F)n1)CN(c1ccc(OCC(F)(F)F)cc1)C2=O [Example 343, 6-(2-hydroxypropan-2-yl)-4-[2-(2,2,2-trifluoroethoxy)phenyl]-2-[4-(2,2,2-trifluoroethoxy)phenyl]-2,3-dihydro-1H-pyrrolo[3,4-c]pyridin-1-one]
98%	COc1ccccc1-c1nccc2c1CN(c1ccc(OC(F)(F)F)cc1)C2=O [Example 3, 4-(2-methoxyphenyl)-2-[4-(trifluoromethoxy)phenyl]-2,3-dihydro-1H-pyrrolo[3,4-c]pyridin-1-one]
100%	CC(O)(c1ccc(N2Cc3c(ccnc3-c3ccccc3OCC(F)(F)F)C2=O)cc1)C(F)(F)F (racemic) [Example 295, rac-4-[2-(2,2,2-trifluoroethoxy)phenyl]-2-[4-(1,1,1-trifluoro-2-hydroxypropan-2-yl)phenyl]-2,3-dihydro-1H-pyrrolo[3,4-c]pyridin-1-one]
